Reference: patent US5441983A, “Treatment of infection by enveloped virus with calix(N)arene compounds” (Genelabs Incorporated, priority 1992, dated 1995)
Converted amounts (≈) assume the structure as drawn.

How the values were obtained:
HIV-RF-II = assay: Inhibition of syncytia formation, HIV-RF-II; conditions: for EC100: Human immunodeficiency virus 1, 18 h, read-out: HIV-RF-II ED100, complete inhibition of syncytia formation
Method: (§13) Briefly, cells chronically infected with HTLV-IIIB or RF-II HIV strains were incubated in the presence of serial dilutions of the selected KY compound, then further cocultured with indicator cells. The extent of syncytia formation was scored under phase microscopy.
(§14) Representative calix(n)arene compounds from Table 2 were tested for inhibition of cytopathic effects in cells infected with one of two HTLV-III strains, HTLV-IIIB and RF-II strains, as described in Example 12, and in the subsection above.
(§15) Human CD4^+ indicator cells (VB) and chronically infected H9 cells were maintained in RPMI-1640 medium supplemented with 5% fetal calf serum, 100 Units of penicillin per ml and 100 μg of streptomycin per ml at 37° C. in a humidified incubator containing 7% CO2.
(§16) For the fusion assay, serial dilutions between 1:2 and 1:2^8 of a selected KY compound, 1 mg/ml in PBS were made in a 96 well round bottom plate. The diluted KY compound was transferred to a 96 well flat-bottom plate. To each well was added 25 μg chronically infected H9 cells (at 2×10^6, cells/ml), or cells chronically infected with RF-II strain HIV, followed by incubation at 37° C. for 45 minutes. To each well was then added 25 μl VB cells (about 5×10^4 cells), and the cells and virus isolates were cocultured for 18 hours in a humid 5% CO2 atmosphere.

HIV-HXB = assay: Inhibition of syncytia formation, HIV-HXB (HTLV-IIIB); conditions: for EC100: Human immunodeficiency virus 1, 18 h, read-out: HIV-HXB ED100, complete inhibition of syncytia formation
Method: as §13, §14, §15, §16

HSV-1 [1] = assay: Inactivation of purified HSV-1 by compound, plaque number after serial dilution; conditions: 10 μg/ml, duplicate
Method: In a third study, purified HSV-1 virus suspensions were incubated with KY-1 or the sodium salt thereof, or a control solution for 1 hour, then serially diluted to drug concentrations between 10^1 to 10^-4 μg/ml as described in Example 16. The "X" symbol in the table indicates plaques too numerous to count.
Purified HSV-1 was suspended in RPMI-1640 medium (Gibco Laboratories) containing 2% FCS, penicillin and streptomycin. […] The suspensions were incubated for 1 hour at 37° C., then diluted serially at 10 fold dilutions to final drug concentrations of 10, 10^0, 10^-1, 10^-2, 10^-3 and 10^-4 μg/ml drug concentrations The serially diluted particles were then added to Vero cells for two hours, as in Example 6, and the cells examined for plaques 48 hours later.

HSV-1 [2] = assay: Plaque reduction assay, HSV-1, Vero cells; format: cell-based, HSV-1 (Kos-1); conditions: Human alphaherpesvirus 1, Vero, plaque reduction, Vero cells
Method: (§1) used in Table 3 were further tested for activity against HSV infection in
(§2) a plaque reduction assay, as detailed in Example 6. Here Vero cells, after
(§3) overnight incubation, were exposed to serial dilutions of KY compound,
(§4) from 0.625-10 μg/ml, and HSV-1 or HSV-2 virus for two hours. After
(§5) washing to remove drug and extracellular virus, the cells were further
(§6) incubated for 2 days, then stained and counted for plaque formation.
(§7) Percent inhibition was determined by dividing plaques produced by total
(§8) number of plaques in infected, untreated controls. From the concentration
(§9) effect curve of plaque inhibition (expressed as percent of control), the
(§10) concentration of compound required to produce 50% plaque reduction,
(§11) IC50, was determined. The IC50 values for infection by HSV-1 and
(§12) HSV-2 infection is given in the right-hand columns in Table 3. With

HSV-2 = assay: Plaque reduction assay, HSV-2, Vero cells; format: cell-based, HSV-2 (333); conditions: Human alphaherpesvirus 2, Vero
Method: as §1, §2, §3, §4, §5, §6, §7, §8, §9, §10, §11, §12

[3] = complete inhibition of syncytia formation

SMILES: O=C(O)CNS(=O)(=O)c1cc2cc(S(=O)(=O)NCC(=O)O)c3c(O)c2c(O)c1Cc1c(S(=O)(=O)NCC(=O)O)cc2cc(S(=O)(=O)NCC(=O)O)c(c(O)c2c1O)Cc1c(S(=O)(=O)NCC(=O)O)cc2cc(S(=O)(=O)NCC(=O)O)c(c(O)c2c1O)Cc1c(S(=O)(=O)NCC(=O)O)cc2cc(S(=O)(=O)NCC(=O)O)c(c(O)c2c1O)C3 [KY-357]
- EC100 (HIV-RF-II): 63 µg/mL
- EC100 (HIV-HXB): 32 µg/mL

SMILES: O=S(=O)(O)c1cc2cc(S(=O)(=O)O)c3c(O)c2c(O)c1Cc1c(S(=O)(=O)O)cc2cc(S(=O)(=O)O)c(c(O)c2c1O)Cc1c(S(=O)(=O)O)cc2cc(S(=O)(=O)O)c(c(O)c2c1O)Cc1c(S(=O)(=O)O)cc2cc(S(=O)(=O)O)c(c(O)c2c1O)C3 [KY 217]
- Plaque number, dilution 1 (HSV-1 [1]; 0.3 pfu/cell): 2,8
- Plaque number, dilution 10^1 (HSV-1 [1]; 0.3 pfu/cell): 3,3
- Plaque number, dilution 1 (HSV-1 [1]; 3 pfu/cell): X,X
- Plaque number, dilution 10^1 (HSV-1 [1]; 3 pfu/cell): X,X
- Plaque number, dilution 10^2 (HSV-1 [1]; 3 pfu/cell): 6,0
- Plaque number, dilution 10^3 (HSV-1 [1]; 3 pfu/cell): 5,0

SMILES: CC(=O)Oc1c2c(S(=O)(=O)O)cc3cc(S(=O)(=O)O)c(c(OC(C)=O)c13)Cc1c(S(=O)(=O)O)cc3cc(S(=O)(=O)O)c(c(OC(C)=O)c3c1OC(C)=O)Cc1c(S(=O)(=O)O)cc3cc(S(=O)(=O)O)c(c(OC(C)=O)c3c1OC(C)=O)Cc1c(S(=O)(=O)O)cc3cc(S(=O)(=O)O)c(c(OC(C)=O)c3c1OC(C)=O)C2 [KY-270]
- EC100 (HIV-RF-II): 32 µg/mL
- EC100 (HIV-HXB): 16 µg/mL

SMILES: O=S(=O)(Nc1ccccc1)c1cc2cc(S(=O)(=O)Nc3ccccc3)c3c(O)c2c(O)c1Cc1c(S(=O)(=O)Nc2ccccc2)cc2cc(S(=O)(=O)Nc4ccccc4)c(c(O)c2c1O)Cc1c(S(=O)(=O)Nc2ccccc2)cc2cc(S(=O)(=O)Nc4ccccc4)c(c(O)c2c1O)Cc1c(S(=O)(=O)Nc2ccccc2)cc2cc(S(=O)(=O)Nc4ccccc4)c(c(O)c2c1O)C3 [KY-176]
- EC100 (HIV-RF-II): 250 µg/mL
- EC100 (HIV-HXB): 125 µg/mL

SMILES: CCC(=O)Oc1c2c(S(=O)(=O)O)cc3cc(S(=O)(=O)O)c(c(OC(=O)CC)c13)Cc1c(S(=O)(=O)O)cc3cc(S(=O)(=O)O)c(c(OC(=O)CC)c3c1OC(=O)CC)Cc1c(S(=O)(=O)O)cc3cc(S(=O)(=O)O)c(c(OC(=O)CC)c3c1OC(=O)CC)Cc1c(S(=O)(=O)O)cc3cc(S(=O)(=O)O)c(c(OC(=O)CC)c3c1OC(=O)CC)C2 [KY-276]
- EC100 (HIV-RF-II): 32 µg/mL
- EC100 (HIV-HXB): 16 µg/mL

SMILES: Oc1c2c(S)cc3cc(S)c(c(O)c13)Cc1c(S)cc3cc(S)c(c(O)c3c1O)Cc1c(S)cc3cc(S)c(c(O)c3c1O)Cc1c(S)cc3cc(S)c(c(O)c3c1O)C2 [KY-171]
- EC100 (HIV-RF-II): 250 µg/mL
- EC100 (HIV-HXB): 125 µg/mL
- IC50 (HSV-1 [2]): 2.5 mg/L (≈ 2.64 µM)
- IC50 (HSV-2): 3 mg/L (≈ 3.17 µM)

SMILES: CCCCC(=O)Oc1c2c(S(=O)(=O)O)cc3cc(S(=O)(=O)O)c(c(OC(=O)CCCC)c13)Cc1c(S(=O)(=O)O)cc3cc(S(=O)(=O)O)c(c(OC(=O)CCCC)c3c1OC(=O)CCCC)Cc1c(S(=O)(=O)O)cc3cc(S(=O)(=O)O)c(c(OC(=O)CCCC)c3c1OC(=O)CCCC)Cc1c(S(=O)(=O)O)cc3cc(S(=O)(=O)O)c(c(OC(=O)CCCC)c3c1OC(=O)CCCC)C2 [KY-289]
- EC100 (HIV-RF-II): 32 µg/mL
- EC100 (HIV-HXB): 16 µg/mL

SMILES: COc1c2c(S(=O)(=O)O)cc3cc(S(=O)(=O)O)c(c(OC)c13)C(C(=O)O)c1c(S(=O)(=O)O)cc3cc(S(=O)(=O)O)c(c(OC)c3c1OC)C(C(=O)O)c1c(S(=O)(=O)O)cc3cc(S(=O)(=O)O)c(c(OC)c3c1OC)C(C(=O)O)c1c(S(=O)(=O)O)cc3cc(S(=O)(=O)O)c(c(OC)c3c1OC)C2C(=O)O (stereo not drawn) [KY-284]
- EC100 (HIV-RF-II): 32 µg/mL
- EC100 (HIV-HXB): 16 µg/mL

SMILES: O=C(O)C1c2c(S(=O)(=O)O)cc3cc(S(=O)(=O)O)c(c(O)c3c2O)C(C(=O)O)c2c(S(=O)(=O)O)cc3cc(S(=O)(=O)O)c(c(O)c3c2O)C(C(=O)O)c2c(S(=O)(=O)O)cc3cc(S(=O)(=O)O)c(c(O)c3c2O)C(C(=O)O)c2c(S(=O)(=O)O)cc3cc(S(=O)(=O)O)c1c(O)c3c2O (stereo not drawn) [Y-66]
- IC50 (HSV-1 [2]): > 10 mg/L
- IC50 (HSV-2): > 10 mg/L

SMILES: CC(=O)Oc1c2c(S(=O)(=O)O)cc3cc(S(=O)(=O)O)c(c(OC(C)=O)c13)C(C(=O)O)c1c(S(=O)(=O)O)cc3cc(S(=O)(=O)O)c(c(OC(C)=O)c3c1OC(C)=O)C(C(=O)O)c1c(S(=O)(=O)O)cc3cc(S(=O)(=O)O)c(c(OC(C)=O)c3c1OC(C)=O)C(C(=O)O)c1c(S(=O)(=O)O)cc3cc(S(=O)(=O)O)c(c(OC(C)=O)c3c1OC(C)=O)C2C(=O)O (stereo not drawn) [KY-272]
- EC100 (HIV-RF-II): 250 µg/mL
- EC100 (HIV-HXB): 63 µg/mL

SMILES: O=S(=O)(O)c1cc2c(O)c(c1)Cc1cc(S(=O)(=O)O)cc(c1O)Cc1cc(S(=O)(=O)O)cc(c1O)Cc1cc(S(=O)(=O)O)cc(c1O)C2 [Y-49]
- IC50 (HSV-1 [2]): 5 mg/L (≈ 6.71 µM)
- IC50 (HSV-2): 10 mg/L (≈ 13.4 µM)

SMILES: O=S(=O)(O)c1cc2c(O)c(c1)Cc1cc(S(=O)(=O)O)cc(c1O)Cc1cc(S(=O)(=O)O)cc(c1O)Cc1cc(S(=O)(=O)O)cc(c1O)Cc1cc(S(=O)(=O)O)cc(c1O)Cc1cc(S(=O)(=O)O)cc(c1O)C2 [Y-77]
- IC50 (HSV-1 [2]): 8 mg/L (≈ 7.16 µM)
- IC50 (HSV-2): 11 mg/L (≈ 9.85 µM)

SMILES: CC=CC(=O)Oc1c2c(S(=O)(=O)O)cc3cc(S(=O)(=O)O)c(c(OC(=O)C=CC)c13)Cc1c(S(=O)(=O)O)cc3cc(S(=O)(=O)O)c(c(OC(=O)C=CC)c3c1OC(=O)C=CC)Cc1c(S(=O)(=O)O)cc3cc(S(=O)(=O)O)c(c(OC(=O)C=CC)c3c1OC(=O)C=CC)Cc1c(S(=O)(=O)O)cc3cc(S(=O)(=O)O)c(c(OC(=O)C=CC)c3c1OC(=O)C=CC)C2 [KY-293]
- EC100 (HIV-RF-II): 63 µg/mL
- EC100 (HIV-HXB): 16 µg/mL

SMILES: CCCC(=O)Oc1c2c(S(=O)(=O)O)cc3cc(S(=O)(=O)O)c(c(OC(=O)CCC)c13)Cc1c(S(=O)(=O)O)cc3cc(S(=O)(=O)O)c(c(OC(=O)CCC)c3c1OC(=O)CCC)Cc1c(S(=O)(=O)O)cc3cc(S(=O)(=O)O)c(c(OC(=O)CCC)c3c1OC(=O)CCC)Cc1c(S(=O)(=O)O)cc3cc(S(=O)(=O)O)c(c(OC(=O)CCC)c3c1OC(=O)CCC)C2 [KY-281]
- EC100 (HIV-RF-II): 32 µg/mL
- EC100 (HIV-HXB): 16 µg/mL

SMILES: O=S(=O)(O)c1c2c(O)c3c(O)c(c(S(=O)(=O)O)c(O)c3c1O)C(c1ccccc1)c1c(S(=O)(=O)O)c(O)c3c(O)c(S(=O)(=O)O)c(c(O)c3c1O)C(c1ccccc1)c1c(S(=O)(=O)O)c(O)c3c(O)c(S(=O)(=O)O)c(c(O)c3c1O)C(c1ccccc1)c1c(S(=O)(=O)O)c(O)c3c(O)c(S(=O)(=O)O)c(c(O)c3c1O)C2c1ccccc1 (stereo not drawn) [KY-85]
- EC100 (HIV-HXB): 32 µg/mL

SMILES: O=C(O)CCCCCCC(=O)Oc1c2c(S(=O)(=O)O)cc3cc(S(=O)(=O)O)c(c(OC(=O)CCCCCCC(=O)O)c13)Cc1c(S(=O)(=O)O)cc3cc(S(=O)(=O)O)c(c(OC(=O)CCCCCCC(=O)O)c3c1OC(=O)CCCCCCC(=O)O)Cc1c(S(=O)(=O)O)cc3cc(S(=O)(=O)O)c(c(OC(=O)CCCCCCC(=O)O)c3c1OC(=O)CCCCCCC(=O)O)Cc1c(S(=O)(=O)O)cc3cc(S(=O)(=O)O)c(c(OC(=O)CCCCCCC(=O)O)c3c1OC(=O)CCCCCCC(=O)O)C2 [KY-294]
- EC100 (HIV-RF-II): 16 µg/mL
- EC100 (HIV-HXB): 16 µg/mL

SMILES: CCCC(=O)Oc1c2c(S(=O)(=O)O)cc3cc(S(=O)(=O)O)c(c(OC(=O)CCC)c13)Cc1c(S(=O)(=O)O)cc3cc(S(=O)(=O)O)c(c(OC(=O)CCC)c3c1OC(=O)CCC)Cc1c(S(=O)(=O)O)cc3cc(S(=O)(=O)O)c(c(OC(=O)CCC)c3c1OC(=O)CCC)Cc1c(S(=O)(=O)O)cc3cc(S(=O)(=O)O)c(c(OC(=O)CCC)c3c1OC(=O)CCC)C2 [KY-288]
- HIV-RF-II ED100 (HIV-RF-II; [3]): 16
- HIV-HXB ED100 (HIV-HXB; [3]): 8

SMILES: O=C(O)CCCCCOc1c2c(S(=O)(=O)O)cc3cc(S(=O)(=O)O)c(c(OCCCCCC(=O)O)c13)Cc1c(S(=O)(=O)O)cc3cc(S(=O)(=O)O)c(c(OCCCCCC(=O)O)c3c1OCCCCCC(=O)O)Cc1c(S(=O)(=O)O)cc3cc(S(=O)(=O)O)c(c(OCCCCCC(=O)O)c3c1OCCCCCC(=O)O)Cc1c(S(=O)(=O)O)cc3cc(S(=O)(=O)O)c(c(OCCCCCC(=O)O)c3c1OCCCCCC(=O)O)C2 [KY-307]
- EC100 (HIV-RF-II): 32 µg/mL
- EC100 (HIV-HXB): 8 µg/mL

SMILES: CCCCCC(=O)Oc1c2c(S(=O)(=O)O)cc3cc(S(=O)(=O)O)c(c(OC(=O)CCCCC)c13)Cc1c(S(=O)(=O)O)cc3cc(S(=O)(=O)O)c(c(OC(=O)CCCCC)c3c1OC(=O)CCCCC)Cc1c(S(=O)(=O)O)cc3cc(S(=O)(=O)O)c(c(OC(=O)CCCCC)c3c1OC(=O)CCCCC)Cc1c(S(=O)(=O)O)cc3cc(S(=O)(=O)O)c(c(OC(=O)CCCCC)c3c1OC(=O)CCCCC)C2 [KY-291]
- EC100 (HIV-RF-II): 32 µg/mL
- EC100 (HIV-HXB): 16 µg/mL

SMILES: O=S(=O)(O)c1c2c(O)c3c(O)c(c(S(=O)(=O)O)c(Br)c3c1Br)C(C(Br)CBr)c1c(S(=O)(=O)O)c(Br)c3c(Br)c(S(=O)(=O)O)c(c(O)c3c1O)C(C(Br)CBr)c1c(S(=O)(=O)O)c(Br)c3c(Br)c(S(=O)(=O)O)c(c(O)c3c1O)C(C(Br)CBr)c1c(S(=O)(=O)O)c(Br)c3c(Br)c(S(=O)(=O)O)c(c(O)c3c1O)C2C(Br)CBr (stereo not drawn) [KY-193]
- EC100 (HIV-RF-II): 500 µg/mL
- EC100 (HIV-HXB): 63 µg/mL
